Reference: PubChem BioAssay AID248 (DTP/NCI, 2004)
Inconclusive results and toxic doses are left out. Cut-off read from the data, not from the text of the source: active = T/C of 150% or more; inactive = T/C below 125%.

Test system: L1210 leukemia ip in BDF1 mice, survival T/C
Test: NCI In Vivo Anticancer Drug Screen. Data for tumor model L1210 Leukemia (intraperitoneal) in B6D2F1 (BDF1) mice
Conditions: endpoint: mean survival time, higher = longer survival
Method in brief: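 Tumor was transplanted into mice, which were then dosed with test compound or vehicle alone. Survival was recorded for each group, and the treated figure was expressed relative to the control figure.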

[1] = dose: 100.0 mg/kg/injection, schedule: Q01DX009 (ip), vehicle: Klucel (hydroxypropylcellulose) (HPC)
[2] = dose: 200.0 mg/kg/injection, schedule: Q01DX009 (ip), vehicle: Klucel (hydroxypropylcellulose) (HPC)
[3] = dose: 100.0 mg/kg/injection, schedule: Q01DX009 (ip), vehicle: saline with Tween-80
[4] = dose: 100.0 mg/kg/injection, schedule: Q04DX003 (ip), vehicle: other
[5] = dose: 200.0 mg/kg/injection, schedule: Q01DX009 (ip), vehicle: saline with Tween-80
[6] = dose: 200.0 mg/kg/injection, schedule: Q04DX003 (ip), vehicle: other
[7] = dose: 400.0 mg/kg/injection, schedule: Q01DX009 (ip), vehicle: saline with Tween-80
[8] = dose: 400.0 mg/kg/injection, schedule: Q04DX003 (ip), vehicle: other
[9] = dose: 100.0 mg/kg/injection, schedule: Q04DX002 (ip), vehicle: Klucel (hydroxypropylcellulose) (HPC)
[10] = dose: 200.0 mg/kg/injection, schedule: Q04DX002 (ip), vehicle: Klucel (hydroxypropylcellulose) (HPC)
[11] = dose: 400.0 mg/kg/injection, schedule: Q04DX002 (ip), vehicle: Klucel (hydroxypropylcellulose) (HPC)
[12] = dose: 50.0 mg/kg/injection, schedule: Q01DX001 (ip), vehicle: carboxymethylcellulose (CMC)
[13] = dose: 100.0 mg/kg/injection, schedule: Q01DX001 (ip), vehicle: carboxymethylcellulose (CMC)
[14] = dose: 200.0 mg/kg/injection, schedule: Q01DX001 (ip), vehicle: carboxymethylcellulose (CMC)
[15] = dose: 400.0 mg/kg/injection, schedule: Q01DX001 (ip), vehicle: carboxymethylcellulose (CMC)
[16] = dose: 100.0 mg/kg/injection, schedule: Q04DX003 (ip), vehicle: Klucel (hydroxypropylcellulose) (HPC)
[17] = dose: 200.0 mg/kg/injection, schedule: Q04DX003 (ip), vehicle: Klucel (hydroxypropylcellulose) (HPC)
[18] = dose: 400.0 mg/kg/injection, schedule: Q01DX009 (ip), vehicle: Klucel (hydroxypropylcellulose) (HPC)
[19] = dose: 400.0 mg/kg/injection, schedule: Q04DX003 (ip), vehicle: Klucel (hydroxypropylcellulose) (HPC)

Measured: T/C

NP(=O)(CCl)NC12CC3CC(CC(C3)C1)C2 (stereo unspecified)
inactive: dose: 50.0 mg/kg/injection, schedule: Q01DX009 (ip), vehicle: Klucel (hydroxypropylcellulose) (HPC) 86 % of control | [1] 95 % of control | [2] 93 % of control

O=C1c2ccccc2C(=O)N1CNc1ccccc1/C(=N/O)c1ccccc1
inactive: dose: 87.5 mg/kg/injection, schedule: Q01DX009 (ip), vehicle: Klucel (hydroxypropylcellulose) (HPC) 95 % of control | dose: 175.0 mg/kg/injection, schedule: Q01DX009 (ip), vehicle: Klucel (hydroxypropylcellulose) (HPC) 93 % of control | dose: 350.0 mg/kg/injection, schedule: Q01DX009 (ip), vehicle: Klucel (hydroxypropylcellulose) (HPC) 93 % of control

CCOC(C#Cc1ccccc1)OCC
inactive: dose: 100.0 mg/kg/injection, schedule: Q04DX003 (ip), vehicle: saline 105 % of control | dose: 200.0 mg/kg/injection, schedule: Q04DX003 (ip), vehicle: saline 114 % of control | dose: 400.0 mg/kg/injection, schedule: Q04DX003 (ip), vehicle: saline 95 % of control

COc1ccc(C(=O)c2c(C(=O)O)ccc3ccccc23)cc1
inactive: [3] 104 % of control | [4] 101 % of control | [5] 95 % of control | [6] 100 % of control | [7] 106 % of control | [8] 100 % of control

CCC(C)(CC)OC(=O)c1ccc([N+](=O)[O-])cc1
inactive: [9] 113 % of control | [10] 106 % of control | [11] 97 % of control

O=C(Nc1cccc2ccccc12)OC/C=C/c1ccccc1
inactive: [9] 119 % of control | [10] 93 % of control | [11] 104 % of control

CSCCC1NC(=O)C(/C(C)=N\NC(N)=O)=C1O (stereo unspecified)
inactive: [12] 101 % of control | [13] 103 % of control | [14] 103 % of control | [15] 101 % of control

COc1ccc(C(C)c2ccccc2)cc1C(C)c1ccccc1 (stereo unspecified)
inactive: [3] 93 % of control | dose: 100.0 mg/kg/injection, schedule: Q04DX003 (ip), vehicle: saline with Tween-80 98 % of control | [5] 95 % of control | dose: 200.0 mg/kg/injection, schedule: Q04DX003 (ip), vehicle: saline with Tween-80 89 % of control | [7] 88 % of control | dose: 400.0 mg/kg/injection, schedule: Q04DX003 (ip), vehicle: saline with Tween-80 98 % of control

Clc1ccccc1/C=N/N1CCN(/N=C/c2ccccc2Cl)CC1
inactive: dose: 100.0 mg/kg/injection, schedule: Q01DX001 (ip), vehicle: saline 97 % of control | dose: 200.0 mg/kg/injection, schedule: Q01DX001 (ip), vehicle: saline 95 % of control | dose: 400.0 mg/kg/injection, schedule: Q01DX001 (ip), vehicle: saline 101 % of control

Cc1nc2ncn(C3OC(CO)C(O)C3O)c2nc1C (stereo unspecified)
inactive: dose: 100.0 mg/kg/injection, schedule: Q01DX005 (ip), vehicle: saline 95 % of control | dose: 200.0 mg/kg/injection, schedule: Q01DX005 (ip), vehicle: saline 90 % of control

Cc1ccc(S(=O)(=O)OCC2CC3CCC2C3)cc1 (stereo unspecified)
inactive: [4] 91 % of control | [6] 94 % of control | [8] 98 % of control

CCCCCCCCOc1ccc(C(=O)c2ccccc2)c(O)c1
inactive: [1] 100 % of control | [16] 94 % of control | [2] 101 % of control | [17] 96 % of control | [18] 94 % of control | [19] 94 % of control

O=C(O)/C=C/c1ccc(O)c(O)c1
inactive: dose: 100.0 mg/kg/injection, schedule: Q04DX002 (ip), vehicle: gum acacia 92 % of control | dose: 200.0 mg/kg/injection, schedule: Q04DX002 (ip), vehicle: gum acacia 92 % of control | dose: 400.0 mg/kg/injection, schedule: Q04DX002 (ip), vehicle: gum acacia 95 % of control

C[C@]12C=CC(=O)C=C1CC[C@H]1[C@@H]3CCC(=O)O[C@@]3(C)CC(=O)[C@@]12F
inactive: dose: 50.0 mg/kg/injection, schedule: Q01DX001 (sc), vehicle: steriod suspending solution 102 % of control | dose: 50.0 mg/kg/injection, schedule: Q01DX009 (sc), vehicle: steriod suspending solution 102 % of control | dose: 100.0 mg/kg/injection, schedule: Q01DX001 (sc), vehicle: steriod suspending solution 104 % of control | dose: 100.0 mg/kg/injection, schedule: Q01DX009 (sc), vehicle: steriod suspending solution 100 % of control | dose: 200.0 mg/kg/injection, schedule: Q01DX001 (sc), vehicle: steriod suspending solution 107 % of control | dose: 200.0 mg/kg/injection, schedule: Q01DX009 (sc), vehicle: steriod suspending solution 97 % of control | dose: 400.0 mg/kg/injection, schedule: Q01DX001 (sc), vehicle: steriod suspending solution 113 % of control | dose: 400.0 mg/kg/injection, schedule: Q01DX009 (sc), vehicle: steriod suspending solution 100 % of control

Oc1ccccc1-c1nc2ccccc2[nH]1
inactive: [9] 109 % of control | [10] 98 % of control | [11] 95 % of control

O=C(CC(NC(=O)OCc1ccccc1)C(=O)OCc1ccccc1)OCc1ccccc1 (stereo unspecified)
inactive: [2] 88 % of control | [18] 89 % of control

O=C1CCC=C(c2cccc([N+](=O)[O-])c2)O1
inactive: [16] 100 % of control | [17] 94 % of control | [19] 94 % of control

Cc1ccc(NC(=O)NCCCl)cc1
inactive: [12] 97 % of control | [13] 97 % of control | [14] 113 % of control | [15] 100 % of control

Cc1cc(OC(=O)Nc2ccccc2Cl)ccc1[N+](=O)[O-]
inactive: [1] 107 % of control | [16] 100 % of control | [2] 104 % of control | [17] 89 % of control | [18] 98 % of control | [19] 102 % of control

CCCCCCNP(=O)(Oc1ccccc1)Oc1ccccc1
inactive: [16] 97 % of control | [17] 97 % of control | [19] 105 % of control

CCN(CC)CCCC(C)N (stereo unspecified)
inactive: dose: 12.5 mg/kg/injection, schedule: Q04DX003 (ip), vehicle: saline 104 % of control | dose: 25.0 mg/kg/injection, schedule: Q04DX003 (ip), vehicle: saline 100 % of control | dose: 50.0 mg/kg/injection, schedule: Q04DX003 (ip), vehicle: saline 101 % of control

Cc1cc(C(=O)Nc2ccc(NC3=NCCN3)cc2)c(C)cc1C(=O)Nc1ccc(NC2=NCCN2)cc1
inactive: dose: 1.88 mg/kg/injection, schedule: Q01DX Z (ip), vehicle: saline 93 % of control | dose: 3.75 mg/kg/injection, schedule: Q01DX Z (ip), vehicle: saline 98 % of control | dose: 7.5 mg/kg/injection, schedule: Q01DX Z (ip), vehicle: saline 94 % of control | dose: 15.0 mg/kg/injection, schedule: Q01DX Z (ip), vehicle: saline 108 % of control | dose: 30.0 mg/kg/injection, schedule: Q01DX Z (ip), vehicle: saline 103 % of control

CCC(C)C(CCN1CCCC1)(CNC(=O)CN(CC)CC)c1cccc2ccccc12 (stereo unspecified)
inactive: dose: 100.0 mg/kg/injection, schedule: Q01DX009 (ip), vehicle: saline 95 % of control
